PMC9738796, “Design of Conjugates Based on Sesquiterpene Lactones with Polyalkoxybenzenes by “Click” Chemistry to Create Potential Anticancer Agents” (Molecules, 2022)
Where two headings read alike, the source gives them in different places.

Tests used:
[1] = tested on: A549 (adenocarcinomic human alveolar basal epithelial cells); assay: MTT cell viability, A549; assay type: cell-based; settings: 24 h
Description: (§1) In this study we used human cell culture of tumor origin—SH-SY5Y (neuroblastoma), HeLa (cervical tumor), Hep-2 (larynx carcinoma), A549 (adenocarcinomic human alveolar basal epithelial cells); and normal cell line Hek 293 (human embryonic kidneys)), provided by the Laboratory of Tumor Cell Genetics of the Scientific Research Institute of Carcinogenesis, N.N. Blokhin National Medical Research Center of Oncology, as well as the Institute of Cytology of the Russian Academy of Sciences. While being grown for experiments, cells were cultured at 37 °C in a humidified CO2 atmosphere (5%) in a nutrient medium DMEM (PanEco, Moscow, Russia) and MEM (PanEco, Moscow, Russia), containing fetal bovine serum (10% by volume) (Thermo Fisher Scientific, Paisley, UK), Glutamax (2 mM) (Gibco, Renfrewshire, UK), and penicillin-streptomycin (1% by volume) (PanEco, Moscow, Russia).
(§2) Cell viability was determined by MTT test as described earlier. Cells were seeded in a 96-well plate in the amount of 1 × 10^4 cells/200 µL and cultured at 37 °C in a humidified CO2 atmosphere (5%) in a nutrient medium DMEM (PanEco, Moscow, Russia) and MEM (PanEco, Moscow, Russia). After 24 h of incubation, […] aliquots of test compounds ([…]) dissolved in DMSO were added to the cell cultures, and cells were cultured under the same conditions for 24 h. […] DMSO also was added to the control wells in a volume of 1%.
(§3) After 24 h, […] of MTT (3-(4,5-dimethylthiazol-2-yl)-2,5-diphenyltetrazolium bromide, 5 mg/mL) was added to each well and the plates were additionally incubated for 2 h.
(§4) Using a plate analyzer (Cytation3, BioTek Instruments Inc., Winooski, VT, USA), the optical density was determined at 530 nm. The concentration value causing 50% inhibition of cell population growth (IC50) was determined from dose-dependent curves.

Hep-2 (larynx carcinoma) = assay: MTT cell viability, Hep-2; assay type: cell-based; settings: Homo sapiens, 24 h
Description: as §1, §2, §3, §4

HeLa (cervical tumor) [2] = assay: MTT cell viability, HeLa; assay type: cell-based; settings: Homo sapiens, 24 h
Description: as §1, §2, §3, §4

[3] = tested on: Hek 293 (human embryonic kidneys); assay: MTT cell viability, normal Hek 293; assay type: cell-based; settings: HEK293, 24 h
Description: as §1, §2, §3, §4

SH-SY5Y (neuroblastoma) = assay: MTT cell viability, SH-SY5Y; assay type: cell-based; settings: Homo sapiens, 24 h
Description: as §1, §2, §3, §4

[4] = tested on: all cell lines (SH-SY5Y, HeLa, Hep-2, A549, Hek 293); assay: MTT cytotoxicity, summary over all cell lines; assay type: cell-based; settings: Homo sapiens; span over all cell lines
Description: as §1
Cell viability was determined by MTT test as described earlier. Cells were seeded in a 96-well plate in the amount of 1 × 10^4 cells/200 µL and cultured at 37 °C in a humidified CO2 atmosphere (5%) in a nutrient medium DMEM (PanEco, Moscow, Russia) and MEM (PanEco, Moscow, Russia). […]
Using a plate analyzer (Cytation3, BioTek Instruments Inc., Winooski, VT, USA), the optical density was determined at 530 nm. […]

SH-SY5Y cells = assay: Glycolysis flux assay (Seahorse ECAR); assay type: cell-based, human; settings: for decrease in ECAR: 100 µM, SH-SY5Y, kinetic curves (Figure 3d,e); for glycolytic capacity (ECAR change relative to control): SH-SY5Y (Figure 3c)
Description: The ability of compounds to suppress anaerobic glycolysis was studied using the Agilent Seahorse XF96e Analyzer (Seahorse Bioscience, Billerica, MA, USA) by the level of hydrogen proton production in the studied samples on cell lines of neuroblastoma SH-SY5Y [55].
The 30,000 SH-SY5Y cells per well were plated in an XF cell culture microplate (Seahorse Bioscience, Billerica, MA, USA). After plating cells, the microplate was kept overnight in a 37 °C, 5% CO2 incubator. On the following day the medium was aspirated, the cells washed and placed in serum-free, pyruvate-free and glucose-free medium (pH = 7.4). The microplate was kept for 45 min again in a 37° C, 5% CO2 incubator.
When SH-SY5Y cells were analyzed, we followed the procedure described in the Seahorse Glycolysis Stress Test kit. Briefly, initial extracellular acidification rate (ECAR) measurements were taken in the absence of glucose. […] This was followed by an injection of oligomycin from port C so that the final concentration of oligomycin in each well was […]. Lastly, a 25 mM final concentration of 2-deoxyglucose was injected from port D.
Data for each experimental condition derive from values obtained from a minimum of 5 separate wells.

HeLa (cervical tumor) [5] = settings: HeLa column; cited from earlier work

IC50 (Hep-2 (larynx carcinoma)) [µM] | IC50 (HeLa (cervical tumor) [2]) [µM] | IC50 (SH-SY5Y (neuroblastoma)) [µM] | Structure (SMILES) | IC50 [1] [µM] | IC50 [3] [µM] | IC50 [4] [µM] | decrease in ECAR (SH-SY5Y cells) | IC50 (HeLa (cervical tumor) [5]) [µM] | glycolytic capacity (ECAR change relative to control) (SH-SY5Y cells; 100 μM) | glycolysis (ECAR change relative to control) (SH-SY5Y cells; 100 μM, SH-SY5Y (Figure 3b))
91 ± 2.85 | 81 ± 3.17 | 45.2 ± 1.24 | COc1ccc(COCc2cn(CCNC[C@H]3C(=O)O[C@@H]4C[C@@]5(C)CCC[C@H](C)C5=C[C@@H]43)nn2)cc1OC [7d, (3S,3aR,5S,8aR,9aR)-3-(((2-(4-(((3,4-Dimethoxybenzyl)oxy)methyl)-1H-1,2,3-triazol-1-yl)ethyl)amino)methyl)-5,8a-dimethyl-3,3a,6,7,8,8a,9,9a-octahydronaphtho [2,3-b]furan-2(5H)-one] | 83.5 ± 1.09 | 35.39 ± 0.29 | – | – | – | – | –
67.16 ± 0.14 | 55.1 ± 0.94 | 41.7 ± 1.73 | COc1ccc(COCc2cn(CCNC[C@H]3C(=O)O[C@@H]4C[C@@]5(C)CCC[C@H](C)C5=C[C@@H]43)nn2)cc1 [7b, (3S,3aR,5S,8aR,9aR)-3-(((2-(4-(((4-Methoxybenzyl)oxy)methyl)-1H-1,2,3-triazol-1-yl)ethyl)amino)methyl)-5,8a-dimethyl-3,3a,6,7,8,8a,9,9a-octahydronaphtho [2,3-b]furan-2(5H)-one] | 47.3 ± 1.52 | 42.3 ± 1.09 | – | – | – | – | –
> 100 | 79.59 ± 0.33 | 89.5 ± 2.57 | C=C1CC[C@H]2C(CNCc3cn(Cc4cccc(OC)c4OC)nn3)C(=O)O[C@@H]2C2C(=C)CCC12 (some centres unmarked) [10c] | > 100 | 66.29 ± 0.08 | – | – | – | – | –
82.2 ± 1.15 | 26.4 ± 2.39 | 21.83 ± 0.02 | C=C1CC[C@H]2C(CNCc3cn(Cc4ccc(OC)c(OC)c4)nn3)C(=O)O[C@@H]2C2C(=C)CCC12 (some centres unmarked) [10d] | > 100 | > 100 | – | – | – | – | –
26.3 ± 0.38 | 16.6 ± 0.59 | 16.1 ± 0.46 | C=C1CC[C@H]2C(CNCc3cn(Cc4ccc(OC)cc4)nn3)C(=O)O[C@@H]2C2C(=C)CCC12 (some centres unmarked) [10b] | 25.2 ± 3.44 | 56.65 ± 0.05 | – | – | – | – | –
55.68 ± 0.52 | 39 ± 1.27 | 33.6 ± 1.27 | C[C@H]1CCC[C@]2(C)C[C@H]3OC(=O)C(CNCCn4cc(COCc5ccc6c(c5)OCO6)nn4)[C@H]3C=C12 (some centres unmarked) [7a] | 29.3 ± 1.37 | 38.9 ± 1.23 | 29 to 55 | more than 50% | – | – | –
> 100 | 72.79 ± 0.07 | 60.38 ± 0.39 | COc1ccc(Cn2cc(CNCC3C(=O)O[C@@H]4C[C@@]5(C)CCC[C@H](C)C5=C[C@H]34)nn2)cc1 (some centres unmarked) [11b] | 70.3 ± 1.17 | 49.55 ± 0.33 | – | – | – | – | –
> 100 | 82.4 ± 1.14 | 94.9 ± 1.08 | C=C1CC[C@H]2[C@H](CNCCn3cc(COCc4cccc(OC)c4OC)nn3)C(=O)O[C@@H]2C2C(=C)CCC12 (stereo partly drawn) [6c, (3R,3aS,9bS)-3-(((2-(4-(((2,3-Dimethoxybenzyl)oxy)methyl)-1H-1,2,3-triazol-1-yl)ethyl)amino)methyl)-6,9-dimethylenedecahydroazuleno [4,5-b]furan-2(9bH)-one] | > 100 | 59.8 ± 1.37 | – | – | – | – | –
> 100 | 61.52 ± 0.12 | 36.3 ± 2.38 | C=C1CC[C@H]2[C@H](CNCCn3cc(COCc4ccc(OC)cc4)nn3)C(=O)O[C@@H]2C2C(=C)CCC12 (stereo partly drawn) [6b, (3R,3aS,9bS)-3-(((2-(4-(((4-Methoxybenzyl)oxy)methyl)-1H-1,2,3-triazol-1-yl)ethyl)amino)methyl)-6,9-dimethylenedecahydroazuleno [4,5-b]furan-2(9bH)-one] | > 100 | 56.4 ± 1.03 | – | – | – | – | –
62.6 ± 0.72 | 46.6 ± 0.81 | 40 ± 1.32 | COc1cccc(COCc2cn(CCNC[C@H]3C(=O)O[C@@H]4C[C@@]5(C)CCC[C@H](C)C5=C[C@@H]43)nn2)c1OC [7c, (3S,3aR,5S,8aR,9aR)-3-(((2-(4-(((2,3-Dimethoxybenzyl)oxy)methyl)-1H-1,2,3-triazol-1-yl)ethyl)amino)methyl)-5,8a-dimethyl-3,3a,6,7,8,8a,9,9a-octahydronaphtho [2,3-b]furan-2(5H)-one] | 53.11 ± 0.25 | 46.25 ± 0.22 | – | – | – | – | –
> 100 | 89.35 ± 0.4 | 56.1 ± 1.06 | COc1ccc(Cn2cc(CNCC3C(=O)O[C@@H]4C[C@@]5(C)CCC[C@H](C)C5=C[C@H]34)nn2)cc1OC (some centres unmarked) [11d] | 91.2 ± 1.54 | 59.6 ± 1.84 | – | – | – | – | –
> 100 | 88.86 ± 0.21 | 71.8 ± 2 | C[C@H]1CCC[C@]2(C)C[C@H]3OC(=O)C(CNCc4cn(Cc5ccc6c(c5)OCO6)nn4)[C@H]3C=C12 (some centres unmarked) [11a] | 95.9 ± 1.5 | 61.43 ± 0.1 | – | more than 50% | – | reaching a minimum | –
> 100 | 88.2 ± 1.27 | > 100 | COc1cccc(Cn2cc(CNCC3C(=O)O[C@@H]4C[C@@]5(C)CCC[C@H](C)C5=C[C@H]34)nn2)c1OC (some centres unmarked) [11c] | > 100 | 67.91 ± 0.65 | – | – | – | – | –
> 100 | 18 ± 0.32 | 19.3 ± 0.57 | C=C1CC[C@H]2C(CNCc3cn(Cc4ccc5c(c4)OCO5)nn3)C(=O)O[C@@H]2C2C(=C)CCC12 (some centres unmarked) [10a] | > 100 | 58.04 ± 0.07 | – | more than 50% | – | – | –
> 100 | > 100 | 57.8 ± 1.71 | C=C1CC[C@H]2[C@H](CNCCn3cc(COCc4ccc(OC)c(OC)c4)nn3)C(=O)O[C@@H]2C2C(=C)CCC12 (stereo partly drawn) [6d, (3R,3aS,9bS)-3-(((2-(4-(((3,4-Dimethoxybenzyl)oxy)methyl)-1H-1,2,3-triazol-1-yl)ethyl)amino)methyl)-6,9-dimethylenedecahydroazuleno [4,5-b]furan-2(9bH)-one] | > 100 | 69.47 ± 0.54 | – | – | – | – | reaching a minimum
88.1 ± 2.66 | 62.4 ± 0.05 | 37.35 ± 0.28 | C=C1CCC2C(CNCCn3cc(COCc4ccc5c(c4)OCO5)nn3)C(=O)OC2C2C(=C)CCC12 [6a, (3R,3aS,9bS)-3-(((2-(4-((Benzo[d][1, 3]dioxol-5-ylmethoxy)methyl)-1H-1,2,3-triazol-1-yl)ethyl)amino)methyl)-6,9-dimethylenedecahydroazuleno [4,5-b]furan-2(9bH)-one] | 85.65 ± 0.38 | 57 ± 1.24 | – | more than 50% | – | reaching a minimum | –

Structure (SMILES) | IC50 (Hep-2 (larynx carcinoma)) [µM] | IC50 (HeLa (cervical tumor) [2]) [µM] | IC50 (SH-SY5Y (neuroblastoma)) [µM] | IC50 [1] [µM] | IC50 [3] [µM] | IC50 [4] [µM] | decrease in ECAR (SH-SY5Y cells) | IC50 (HeLa (cervical tumor) [5]) [µM] | glycolytic capacity (ECAR change relative to control) (SH-SY5Y cells; 100 μM) | glycolysis (ECAR change relative to control) (SH-SY5Y cells; 100 μM, SH-SY5Y (Figure 3b))
C=C1C(=O)O[C@@H]2[C@H]3C(C)=CC[C@@]34O[C@@]4(C)CC[C@@H]12 [Arglabin, arglabin, reference compound] | 29.9 ± 0.93 | – | 34 ± 2.48 | – | 78 ± 2.05 | – | – | 20 | – | –
